Converted amounts (≈) assume the structure as drawn.
Assays:
[1] = system: Escherichia coli R477-100; experiment: Antibacterial activity, MIC by double-microdilution method; format: cell-based; conditions: for Gram-negative MIC a / MIC: Table 2, without DTT; for MIC: R477100, read-out: Gram-negative MIC a
Bacillus Subtilis = experiment: as above; format: cell-based; conditions: for Gram-positive MIC d / MIC: Table 2; for MIC: read-out: Gram-positive MIC d
Escherichia coli 25922 = experiment: as above; format: cell-based; conditions: for Gram-negative MIC b / MIC: Table 2, Escherichia coli 25922; for MIC: read-out: Gram-negative MIC b
[2] = system: supercoiled (+) pHOT-1 plasmid DNA; experiment: DNA cleavage assay (gel electrophoresis); format: biochemical; conditions: for DNase activity (cleavage of supercoiled plasmid, form I to form II): absence of adjuvants, HEPES buffer (50 mM, pH 7.4), 5 hours; for concentration giving almost complete smearing of the DNA (multiply nicked DNA): ascorbic acid (0.32 mM), HEPES pH 7.4, 2 hours
Protocol: Removal of Ligands Prior to Electrophoresis was performed when more than 100 μM of Cu(II)-ligand or Co(III) ligand (at any concentration) complexes were employed that is, for DNA cleavage assays that were performed in the absence of any adjuvants. An Amberlyst® 15 (Sigma Aldrich) ion-exchange resin was prepared according to the reported literature [Hettich et al. J. Am. Chem. Soc. 1997, 119 (24), 5638-5647] and stored at −20° C. Before use, 0.5 gram of the exchanger was mixed with 250 μL of water. After stopping the DNA-cleavage reaction by addition of EDTA (54 mM, 15 minutes incubation at 37° C.), 10 μL of the exchanger suspension was added, vortexed, and incubated at 37° C. for 15 minutes before centrifugation and electrophoresis.
DNA cleavage activity of the tested Complexes towards supercoiled (+) pHOT-1 plasmid DNA (TopoGEN) was monitored by gel electrophoresis. In a typical experiment, plasmid DNA (200 ng, […]) in HEPES buffer (50 mM, pH 7.4) was mixed with different concentrations of a tested metal complex in the presence or absence of ascorbic acid (0.32 mM). All stock solutions of buffers and of the metal complexes were prepared using HPLC grade water (ChromAR®). Molecular biology reagent grade water (Sigma) was added up to a total reaction volume of 30 μL before incubation for a given time. For the ascorbic acid assays, the reaction was quenched immediately after incubation with EDTA (54 mM). For analysis, 10 μL of loading buffer (40% sucrose, 100 mM Tris-HCl (pH 7.5), 1 mM EDTA, 0.5 mg·mL^−1 bromophenol blue) was added to the incubated solution and loaded onto an agarose (SeaKem LE) gel [1% in TAE×1 buffer (40 mM Tris, 20 mM acetic acid, 1 mM EDTA)]. Electrophoresis was carried out at 60 V for 2 hours. Gels were stained with 1 μg·mL^−1 ethidium bromide for 30 minutes and de-stained in TAE×1 buffer. DNA bands were visualized with medium-range ultraviolet light using Bio-Rad Gel Doc XR+ imaging system. The quantity of different DNA forms (I or II) was estimated using ImageJ software.
Chem. 2015, 2015 (28), 4722-4730; Kashiba-Iwatsuki et al. FEBS Lett. 1996, 389 (2), 149-15].
The copper complex of compound 2 (2-Cu(II)) was used as the positive control in these assays.

E. coli DNA gyrase [3] = target: T1, E. coli DNA gyrase (Escherichia coli, UniProt P0AES4+P0AES6); experiment: E. coli Gyrase-DNA supercoiling assay; format: biochemical; conditions: supercoiling of relaxed pHOT-1 plasmid in presence of ATP; 37° C., 60 minutes
T1 construct: purchased TopoGEN
Protocol: The DNA supercoiling reactions were based on the manufacturer protocol (TopoGEN). The amount of DNA gyrase used in each assay was optimized by testing various dilutions of the stock. The amount sufficient to supercoil 250 nanograms (ng) of the substrate in 1 hour at 37° C. was then used for testing the compounds (1.1 U as defined by manufacturer). Assays (30 μL) contained 250 nanograms of relaxed pHOT1 plasmid DNA in Tris-HCl buffer (35 mM), pH 7.5, containing KCl (24 mM), MgCl2 (4 mM), DTT (2 mM), Spermidine (1.8 mM), ATP (1 mM), 6.5% (w/v) glycerol and bovine serum albumin (0.1 mg/ml). Reactions were incubated at 37° C. for 60 minutes. Reaction mixtures were stopped by the addition of 30 μL of loading buffer (40% sucrose, 100 mM Tris·HCl (pH 7.5), 1 mM EDTA, 0.5 mg×mL^−1 bromophenol blue) and worked up using 30 μL of 24:1 chloroform/isoamyl alcohol mixture; the aqueous layer was then analyzed using electrophoresis.
Electrophoresis, gel staining, DNA visualization and DNA quantification were performed as described for the DNA cleavage assays.

[4] = system: Staphylococcus Epidermidis; experiment: Antibacterial activity, MIC by double-microdilution method; format: cell-based; conditions: for Gram-positive MIC c: Table 2; for MIC: Table 2, read-out: Gram-positive MIC c
E. coli DNA gyrase [5] = target: T1, E. coli DNA gyrase; experiment: E. coli Gyrase-DNA cleavage assay; format: biochemical; conditions: for linearization of supercoiled DNA with DNA gyrase, after Proteinase K / generation of linear DNA with DNA gyrase, without Proteinase K: absence of ATP; for linearization of supercoiled DNA with DNA gyrase, after Proteinase K: second incubation with SDS and Proteinase K; for generation of linear DNA with DNA gyrase, without Proteinase K / concentration of maximum linear DNA (bell-shaped profile): without Proteinase K treatment; for generation of linear DNA with DNA gyrase, without Proteinase K: buffer with DTT
Protocol: E. coli gyrase enzyme was purchased from TopoGEN and the DNA cleavage reactions were based on the protocol of Inspiralis. Assays (30 μL) contained supercoiled (+) pHOT1 plasmid (200 nanograms) and DNA gyrase (5 U as defined by manufacturer) in 35 mM Tris-HCl (pH 7.5), 24 mM KCl, 4 mM MgCl2, 2 mM DTT, 1.8 mM Spermidine, 6.5% (w/v) glycerol and 0.1 mg/mL bovine serum albumin. Reactions were incubated at 37° C. for 60 minutes. Enzyme-DNA cleavage complexes were trapped by adding 3 μL of 2% SDS. Following this, 1.5 μL of 10 mg/mL Proteinase K (Sigma-Aldrich) was added (where relevant) and the reaction mixtures were incubated at 37° C. for 30 minutes to digest the enzyme gyrase. Samples were mixed with 30 μL of loading buffer (40% sucrose, 100 mM Tris-HCl (pH 7.5), 1 mM EDTA, 0.5 mg-ml-1 bromophenol blue) and worked up using 30 μL of 24:1 chloroform/isoamyl alcohol mixture; the aqueous layer was then analyzed using electrophoresis. Electrophoresis, gel staining, DNA visualization and DNA quantification were performed as described for the DNA cleavage assays. DNA double stranded cleavage was monitored by the conversion of supercoiled plasmid to linear DNA and quantified in comparison to a control drug-free reaction.
To investigate the mechanism of inhibition, a DNA gyrase-induced DNA cleavage assay was performed in the absence of ATP. In this assay, the production of linear DNA from supercoiled DNA is measured as a function of compound concentration. […] Consequently, for the purposes of this assay, it is necessary to perform a second incubation of the reaction mixture with SDS and Proteinase K, which enables the digestion of the DNA gyrase enzyme and thereby ‘frees’ the linear DNA (Form III) so that it moves during electrophoresis.

[6] = system: Gram-negative and Gram-positive bacteria; experiment: Comparative antibacterial activity, all tested bacteria; format: cell-based; conditions: for antibacterial activity (in words): MIC, Table 2 and 3
Protocol: Comparative antibacterial activities were determined by measuring the MIC values by using the double-microdilution method according to the National Committee for Clinical Laboratory Standards (NCCLS). The Luria-Bertani growth medium and polypropylene 96-well plates (Thermo) were used unless otherwise stated. All the experiments were performed in triplicate, and analogous results were obtained in three different experiments.
Compounds 1-6 and their Cu(II) and Co(III) complexes, as well as the pendant-bearing compounds 19-23 and 26 were tested for their comparative antibacterial activity by determining MIC values against two Gram-negative E. coli strains (AR477-100 and 25922) and two Gram-positive strains, Staphylococcus Epidermidis, and Bacillus Subtilis.

T1 sequence (P0AES4 whole entry, one chain of several): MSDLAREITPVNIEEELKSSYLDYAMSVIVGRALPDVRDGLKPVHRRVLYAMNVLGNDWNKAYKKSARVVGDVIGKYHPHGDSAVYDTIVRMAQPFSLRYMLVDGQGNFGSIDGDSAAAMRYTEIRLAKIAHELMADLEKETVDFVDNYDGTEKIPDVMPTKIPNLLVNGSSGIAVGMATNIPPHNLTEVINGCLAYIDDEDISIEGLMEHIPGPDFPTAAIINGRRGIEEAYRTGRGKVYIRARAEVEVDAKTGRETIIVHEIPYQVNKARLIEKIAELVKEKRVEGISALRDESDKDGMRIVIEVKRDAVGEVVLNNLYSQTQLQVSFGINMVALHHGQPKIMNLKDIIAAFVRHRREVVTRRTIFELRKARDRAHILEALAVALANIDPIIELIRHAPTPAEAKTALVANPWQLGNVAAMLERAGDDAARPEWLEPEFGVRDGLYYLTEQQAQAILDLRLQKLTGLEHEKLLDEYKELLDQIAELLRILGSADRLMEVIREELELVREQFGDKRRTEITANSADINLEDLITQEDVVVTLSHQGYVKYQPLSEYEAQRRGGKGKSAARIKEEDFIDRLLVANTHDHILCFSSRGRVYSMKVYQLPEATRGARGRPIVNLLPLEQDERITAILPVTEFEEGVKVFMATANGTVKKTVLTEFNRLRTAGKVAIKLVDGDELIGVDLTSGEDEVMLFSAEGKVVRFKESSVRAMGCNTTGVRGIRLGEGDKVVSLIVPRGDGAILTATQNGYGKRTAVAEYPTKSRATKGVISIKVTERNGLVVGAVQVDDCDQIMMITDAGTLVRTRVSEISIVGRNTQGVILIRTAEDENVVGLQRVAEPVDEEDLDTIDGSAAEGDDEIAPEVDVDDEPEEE

SMILES	Gram-negative MIC a ([1]; Escherichia coli R477-100)	Gram-positive MIC d (Bacillus Subtilis; Bacillus Subtilis)	Gram-negative MIC b (Escherichia coli 25922)	DNase activity (cleavage of supercoiled plasmid, form I to form II) [2]	IC50 (E. coli DNA gyrase [3])	Gram-positive MIC c [4]	linearization of supercoiled DNA with DNA gyrase, after Proteinase K (E. coli DNA gyrase [5])	generation of linear DNA with DNA gyrase, without Proteinase K (E. coli DNA gyrase [5])	antibacterial activity (in words) [6]	MIC ([1]; Escherichia coli R477-100)	MIC (Bacillus Subtilis; Bacillus Subtilis)	MIC (Escherichia coli 25922)	MIC [4]	also measured
O.O=C(O)c1cn(C2CC2)c2cc(N3CCN(CCCCCCN4CCNCCNCCNCC4)CC3)c(F)cc2c1=O.[Cu+2] [1-Cu(II)]	24 µg/mL	48 µg/mL	48 µg/mL	very significant enhancement in the rates of DNA cleavage	100 ± 10 nM	24 µg/mL	linearized the DNA in a similar manner to the metal-free ligands	not able to generate linear DNA at any concentration	–	–	–	–	–	improvement of MIC in the presence of DTT ([1]; 10 mM DTT vs without DTT, Gram-negative E. coli R477-100): no change whatsoever; concentration giving almost complete smearing of the DNA (multiply nicked DNA) [2]: > 40 µM
O.O=C(O)c1cn(C2CC2)c2cc(N3CCN(CCCCCCCN4CCNCCNCCNCC4)CC3)c(F)cc2c1=O.[Cu+2] [2-Cu(II)]	12 µg/mL	12 µg/mL	6 µg/mL	significant cleavage enhancement even in relation to the activity of 1-Cu(II) and 4-Cu(II)	240 ± 30 nM	12 µg/mL	linearized the DNA in a similar manner to the metal-free ligands	able to generate a significant quantity of linear DNA	–	–	–	–	–	concentration giving almost complete smearing of the DNA (multiply nicked DNA) [2]: 20 µM; concentration of maximum linear DNA (bell-shaped profile) (E. coli DNA gyrase [5]): 25 µM
O.O=C(O)c1cn(C2CC2)c2cc(N3CCN(Cc4ccc(CN5CCNCCNCCNCC5)cc4)CC3)c(F)cc2c1=O.[Cu+2] [4-Cu(II)]	24 µg/mL	6 µg/mL	12 µg/mL	very significant enhancement in the rates of DNA cleavage	140 ± 20 nM	3 µg/mL	linearized the DNA in a similar manner to the metal-free ligands	able to generate a significant quantity of linear DNA	–	–	–	–	–	Gram-negative MIC, DTT 10 mM ([1]; Escherichia coli R477-100): 3.0 µg/mL; improvement of MIC in the presence of DTT (Bacillus Subtilis; 10 mM DTT vs without DTT, Gram-positive B. Subtilis): 4 fold; improvement of MIC in the presence of DTT (Escherichia coli 25922; 10 mM DTT vs without DTT, E. coli 25922): 4 fold; concentration of maximum linear DNA (bell-shaped profile) (E. coli DNA gyrase [5]): 25 µM
O.O=C(O)c1cn(C2CC2)c2cc(N3CCN(Cc4ccc(CCN5CCNCCNCCNCC5)cc4)CC3)c(F)cc2c1=O.[Co+3].[OH-] [5-Co(III)]	3 µg/mL	3 µg/mL	1.5 µg/mL	–	–	3 µg/mL	–	–	slightly higher activity	–	–	–	–	–
O.O=C(O)c1cn(C2CC2)c2cc(N3CCN(Cc4ccc(CCCN5CCNCCNCCNCC5)cc4)CC3)c(F)cc2c1=O.[Co+3].[OH-] [6-Co(III)]	6 µg/mL	3 µg/mL	3 µg/mL	–	–	3 µg/mL	–	–	slightly higher activity	–	–	–	–	–
O=C(O)c1cn(C2CC2)c2cc(N3CCN(CCCCCCN4CCNCCNCCNCC4)CC3)c(F)cc2c1=O [Compound 1]	–	–	–	–	130 ± 30 nM	–	significant linearization of DNA	–	–	12 µg/mL (≈ 20.5 µM)	12 µg/mL (≈ 20.5 µM)	24 µg/mL (≈ 41 µM)	12 µg/mL (≈ 20.5 µM)	–
O=C(O)c1cn(C2CC2)c2cc(N3CCN(CCCCCCCN4CCNCCNCCNCC4)CC3)c(F)cc2c1=O [Compound 2]	–	–	–	–	240 ± 30 nM	–	significant linearization of DNA	–	–	12 µg/mL (≈ 20 µM)	12 µg/mL (≈ 20 µM)	6 µg/mL (≈ 10 µM)	12 µg/mL (≈ 20 µM)	–
O=C(O)c1cn(C2CC2)c2cc(N3CCN(Cc4ccc(CN5CCNCCNCCNCC5)cc4)CC3)c(F)cc2c1=O [Compound 4]	–	–	–	–	150 ± 10 nM	–	significant linearization of DNA	–	–	12 to 24 µg/mL (≈ 19.8 to 39.6 µM)	6 to 12 µg/mL (≈ 9.9 to 19.8 µM)	12 to 24 µg/mL (≈ 19.8 to 39.6 µM)	6 to 12 µg/mL (≈ 9.9 to 19.8 µM)	–
N=C(N)NCCN1CCNCCNCCN(CCCCc2ccc(CN3CCN(c4cc5c(cc4F)c(=O)c(C(=O)O)cn5C4CC4)CC3)cc2)CC1 [Compound 22]	3 µg/mL	1.5 µg/mL	3 µg/mL	significant DNase activity	–	6 µg/mL	–	–	slightly higher activity	–	–	–	–	better antibacterial activity compared to all the other pendant-bearing metal-free ligands ([6]; Table 2 MIC): 4-8 fold; Gram-negative MIC, DTT 10 mM ([1]; Escherichia coli R477-100): 3 µg/mL; Gram-negative MIC, DTT 0 mM ([1]; Table 3, Escherichia coli R477-100, DTT 0 mM): 3 µg/mL; Gram-negative MIC, DTT 2 mM ([1]; Table 3, Escherichia coli R477-100, DTT 2 mM): 3 µg/mL; Gram-positive MIC, DTT 0 mM (Bacillus Subtilis; Table 3, Bacillus Subtilis, DTT 0 mM): 1.5 µg/mL; Gram-positive MIC, DTT 2 mM (Bacillus Subtilis; Table 3, Bacillus Subtilis, DTT 2 mM): 1.5 µg/mL; Gram-positive MIC, DTT 10 mM (Bacillus Subtilis; Table 3, Bacillus Subtilis, DTT 10 mM): 1.5 µg/mL
